Results from patent publication US7723037B2, “Methods and kits for diagnosing or monitoring autoimmune and chronic inflammatory disease” (The Regents of the University of Michigan, priority 2004, dated 2010).

How the values were obtained:
CD70 [1] = experiment: CD70 expression on CD4+ cells of PBMCs cultured with medications used to treat lupus, flow cytometry; format: cell-based, human; conditions: PBMCs with or without PHA, 24 hours, graded concentrations (1-100 μM)
CD70 [2] = conditions: PHA-stimulated T cells, 3 days, oligonucleotide arrays, mean±SEM, 2 independent experiments
CD70 [3] = experiment: Flow cytometric analysis of CD70 expression on drug-treated T cells; format: cell-based, human; conditions: for CD70 expression on CD4+ T cells: summary statement; for increase of CD70 MFI on CD4+ T cells: 1 μM 5-azaC (n=5), 25 μM PD98059 (n=3), 40 μM U0126 (n=4); for CD70 expression increase on cloned T cell line TT48E: 1 μM 5-azaC or 40 μM U0126 for 3 days, 6 serial experiments; for CD70 expression on PHA-stimulated T cells, treated vs untreated: unfractionated T cells, 3 days, 1 μM 5-azaC, procainamide dose response, 25 μM PD98059, 40 μM U0126 (FIG. 2)
CD70 promoter = experiment: Bisulfite sequencing of the CD70 (TNFSF7) promoter in CD4+ T cells; format: cell-based, human; conditions: for methylation of the 10 CG pairs between −515 and −423 of the TNFSF7 promoter: CD4+ T cells stimulated with anti-CD3 and anti-CD28, vs stimulated untreated controls (FIG. 13, 14)
Description: (§1) In other studies, T cells were isolated by negative selection using magnetic beads and instructions provided by the manufacturer (Pan T cell Isolation Kit, Miltenyi), and the CD4+ or CD8+ subset was similarly isolated by magnetic cell sorting. Jurkat cells (E6-1) were cultured as previously described (See, e.g., Cornacchia et al., J Immunol 140:2197 (1998)). Purified human CD4+ T cells were first stimulated with plate bound anti-CD3 and soluble anti-CD28. Briefly, 24 well plates were coated with 300 μl of anti-CD3 (10 μg/ml in PBS—SouthernBiotech) 18 hours 4° C., washed, then 2×10^6 purified T cells were added to the wells in 2 ml RPMI 1640/10% FCS containing 2 μg/ml anti-CD28 (SouthernBiotech).
Bisulfite sequencing. The putative CD70 promoter was identified using the published CD70 cDNA sequence and Tfsitescan software. Deoxycytosine (dC) and deoxymethylcytosine (d^mC) bases in the gene promoter and 5′ flanking sequences were identified by bisulfite treatment of purified DNA followed by nested PCR amplification of 3 sequential fragments to span the entire region. The primers were designed to avoid CG pairs and to account for the conversion of dC to dU by the bisulfite. EcoRI sites were added to the forward primers, and XbaI to the reverse, to facilitate cloning. The amplified fragments were then cloned into PBS+, and 5 clones sequenced for each fragment. The primers used were: […]
The effect of lupus and DNA methylation inhibitors on a regulatory element in the CD70 promoter was examined. DNA was isolated from the CD4+ T cells of 7 healthy individuals or 6 lupus patients, bisulfite treated, the region from −466-−515, containing 6 CG pairs was amplified by PCR, and 5 fragments sequenced from each individual. The average methylation status of the 6 CG pairs for healthy versus lupus individuals is shown (FIG. 8, NI and Lupus, respectively). CD4+ T cells from 5 individuals were also stimulated with PHA, treated with the irreversible DNA methyltransferase inhibitor 5-azacytidine (5-azaC), and the methylation status of the 6 CG pairs similarly analyzed from the 25 fragments sequenced (FIG. 8, 5-azaC). […] Results are presented as the mean±SEM of the average methylation of the 6 CG pairs, measured from the 10-35 determinations/group.
The effects of the DNA methylation inhibitors on the methylation status of this region were then compared. […] Again, 5 cloned fragments were sequenced from each control, for a total of 35 determinations per CG pair. […] FIG. 14 compares the average methylation for the 10 CG pairs (−515 to −423) in the T cells treated with DNA methylation inhibitors relative to stimulated, untreated controls.

CD70 mRNA = experiment: Real time RT-PCR of CD70 transcripts relative to β-actin in T cells; format: cell-based, human; conditions: for CD70 mRNA (transcripts) in CD4+ T cells: anti-CD3 + anti-CD28, 3 days, 5 μm 5-azaC, 50 μm Pca, 20 μm Hyd, 40 μm UO126, 25 μm PD98059 (FIG. 9); for expression of CD70 mRNA relative to that of beta-actin: PHA-stimulated T cells, treated vs untreated, real time RT-PCR (FIG. 1B)
Description: Cells and cell culture. Peripheral blood mononuclear cells (PBMCs) were isolated by density-gradient centrifugation. T cells were then isolated by E-rosetting (See, e.g., Golbus et al., Clin Immunol Immunopathol 46, 129 (1988)). […] Where indicated, the cells were cultured in RPMI 1640/10% fetal calf serum (FCS) supplemented with interleukin-2 (IL-2) (See, e.g., Richardson et al., Clin Immunol Immunopathol 55, 368 (1990)), in round-bottomed 5-ml culture tubes (FALCON). Cells were stimulated with 1 μg/ml of PHA (REMEL) for 16 hours, then cultured in 24-well plates at a density of 1×10^6 for an additional 72 hours in the presence of 2-deoxy-5-azaC or 5-azaC (SIGMA ALDRICH), procainamide (SIGMA ALDRICH), hydralazine (SIGMA ALDRICH), or the MEK inhibitors U0126 (PROMEGA) or PD98059 (PROMEGA). In other studies, PHA-stimulated PBMCs were cultured in RPMI 1640/10% FCS and treated with indomethacin, chloroquine, hydrocortisone, and 6-mercaptopurine (6-MP) (all from SIGMA ALDRICH). TT48E, a cloned, CD4+, tetanus toxoid-reactive human T cell line, was cultured as previously described (Cornacchia et al., J Immunol 140, 2197 (1988); Richardson et al., Arthritis Rheum 35, 647 (1992)).
as §1

B cell IgG production = experiment: T cell and B cell costimulation assay, IgG ELISA of supernatants; format: cell-based, human; conditions: autologous B cells; for IgG produced by B cells cultured with drug-treated cloned T cells vs untreated T cells: TT48E treated 3 days, without PWM, P<0.05 (FIG. 4); for IgG secreted by B cells cultured with drug-treated T cells vs untreated T cells: unfractionated PHA-stimulated T cells, PWM, 8 days, P<0.05 (FIG. 3)
Description: T cell and B cell costimulation assays. E-rosette-purified T cells were stimulated for 16 hours with PHA and then treated with the indicated chemicals for an additional 72 hours as described above. Where indicated, T cell subsets were isolated by negative selection using magnetic beads (Miltenyi). B cells (1-4×10^5) enriched by negative selection using magnetic beads (Miltenyi) and assessed to be 70-85% pure using PE-conjugated anti-human CD21 (PHARMINGEN), were added to washed, drug-treated autologous T cells, at T cell to B cell ratios of 4:1, 2:1, 1:1, 1:2, and 1:4. Where indicated, 0.625 μg/ml of PWM (ALDRICH) was added. The cells were cultured in RPMI 1640/10% FBS/penicillin/streptomycin for 8 days in 96-well roundbottomed plates (Costar) containing a 200 μl total volume (performed in duplicate). Cells were supplemented with 50 μl of medium on day 4. Where indicated, 1 μg/ml of anti-CD70 monoclonal antibody (HNE51) (DAKO) was added to the cultures. TT48E cells were similarly stimulated with PHA (1 μg/ml) for 18 hours, treated with the indicated drugs for 3 days, then similarly cultured with autologous B cells for 8 days. Where indicated, the TT48E cells were pretreated with 1 μg/ml of anti-CD70 for 30 minutes at 4° C., then washed and added to the B cells, according to protocols described by others (See, e.g., Kobata et al., Proc Natl Acad Sci USA 92, 11249 (1995)).
IgG enzyme-linked immunosorbent assays (ELISAs). IgG was measured in the supernatants of the T cell-B cell cultures (See, e.g., Richardson et al., Clin Immunol Immunopathol 55, 368 (1990)). Briefly, 96-well flatbottomed polystyrene plates (Costar) were coated with 1 μg/ml of goat anti-human IgG (Southern Biotech) and washed. Unreacted combining sites were sealed with 3% bovine serum albumin (BSA) in phosphate buffered saline (PBS) by incubation at 4° C. for 16 hours. Pooled supernatants from duplicate wells were diluted 1:5 in PBS/1% BSA, and 50 μl was added to the wells. Serial dilutions of purified human IgG (Sigma) were used for quantitation. Following incubation and washing, goat anti-human IgG conjugated with horseradish peroxidase (Southern Biotech) was added, and cells were incubated for 2 hours at room temperature. The wells were washed 3 times with PBS/0.1% Tween 20, and color was developed using Sigma Fast tablets. The plates were read at 405 nm using a SpectraMax spectrophotometer (Molecular Devices). All determinations were performed in quadruplicate.
Since CD70 participates in T cell-dependent B cell stimulation (See e.g., Kobata et al., Proc Natl Acad Sci USA 92, 11249 (1995)), the effects of DNA methylation inhibitors on CD70-dependent B cell help were examined. […] Eight days later, total IgG in the supernatants was measured by ELISA. […]

## C[C@]12CCC(=O)C=C1CC[C@@H]1[C@@H]2[C@@H](O)C[C@@]2(C)[C@H]1CC[C@]2(O)C(=O)CO [hydrocortisone]
CD70 [1]
  CD70 expression on stimulated or unstimulated CD4+ cells: No increase in CD70 expression

## Nc1ncn([C@H]2C[C@H](O)[C@@H](CO)O2)c(=O)n1 [2-deoxy-5-azaC]
CD70 [2]
  CD70 expression increase in treated cells relative to untreated controls: 2.6±0.6 fold

## Nc1ncn([C@@H]2O[C@H](CO)[C@@H](O)[C@H]2O)c(=O)n1 [5-azaC, 5-azacytidine]
CD70 [3]
  CD70 expression on CD4+ T cells: increased CD70 expression
  increase of CD70 MFI on CD4+ T cells: 1.53±0.45 fold
  CD70 expression increase on cloned T cell line TT48E: 1.69±0.33 fold
  CD70 expression on PHA-stimulated T cells, treated vs untreated: small increase
CD70 [3]; range of 5-azaC concentrations, PHA-stimulated T cells, n=5 experiments (FIG. 2B)
  concentration producing the greatest effect on CD70 expression: 1 µM
CD70 promoter
  methylation of the 10 CG pairs between −515 and −423 of the TNFSF7 promoter: hypomethylated compared to controls
CD70 [2]
  CD70 expression increase in treated cells relative to untreated controls: > 2 fold
CD70 mRNA
  CD70 mRNA (transcripts) in CD4+ T cells: increased steady state levels of CD70 mRNA
  expression of CD70 mRNA relative to that of beta-actin: increased the expression of CD70 mRNA
B cell IgG production
  IgG produced by B cells cultured with drug-treated cloned T cells vs untreated T cells: greater amounts of IgG
  IgG secreted by B cells cultured with drug-treated T cells vs untreated T cells: greater amounts of IgG

## CCN(CC)CCNC(=O)c1ccc(N)cc1 [procainamide]
CD70 [3]
  CD70 expression on CD4+ T cells: increased CD70 expression
  CD70 expression on PHA-stimulated T cells, treated vs untreated: increase in the ratio of the mean fluorescence intensity (MFI) of CD70 expression
CD70 promoter
  methylation of the 10 CG pairs between −515 and −423 of the TNFSF7 promoter: appears to demethylate
CD70 promoter; PHA-stimulated CD4+ T cells (FIG. 8)
  methylation of the region from −466-−515 (6 CG pairs) of the CD70 promoter: demethylate this region
CD70 mRNA
  CD70 mRNA (transcripts) in CD4+ T cells: increased steady state levels of CD70 mRNA

## N#CC(=C(/N)Sc1ccccc1N)/C(C#N)=C(\N)Sc1ccccc1N [U0126]
CD70 [3]
  CD70 expression on CD4+ T cells: increased CD70 expression
  increase of CD70 MFI on CD4+ T cells: 3.20±0.44 fold
  CD70 expression increase on cloned T cell line TT48E: 1.87±0.37 fold
  CD70 expression on PHA-stimulated T cells, treated vs untreated: increase in CD70 expression
CD70 [3]; T cells treated with 40 μM U0126, P=0.085
  CD70 MFI increase in T cells treated with U0126 (FIG. 2I): 2.83±0.95 fold
CD70 promoter
  methylation of the 10 CG pairs between −515 and −423 of the TNFSF7 promoter: appears to demethylate
CD70 mRNA
  CD70 mRNA (transcripts) in CD4+ T cells: increased steady state levels of CD70 mRNA
  expression of CD70 mRNA relative to that of beta-actin: increased the expression of CD70 mRNA
B cell IgG production
  IgG produced by B cells cultured with drug-treated cloned T cells vs untreated T cells: greater amounts of IgG
  IgG secreted by B cells cultured with drug-treated T cells vs untreated T cells: greater amounts of IgG

## CCN(CC)CCCC(C)Nc1ccnc2cc(Cl)ccc12 (stereo not drawn) [chloroquine]
CD70 [1]
  CD70 expression on stimulated or unstimulated CD4+ cells: No increase in CD70 expression

## COc1ccc2c(c1)c(CC(=O)O)c(C)n2C(=O)c1ccc(Cl)cc1 [indomethacin]
CD70 [1]
  CD70 expression on stimulated or unstimulated CD4+ cells: No increase in CD70 expression

## COc1cccc(-c2cc(=O)c3ccccc3o2)c1N [PD98059]
CD70 [3]
  CD70 expression on CD4+ T cells: increased CD70 expression
  increase of CD70 MFI on CD4+ T cells: 1.63±0.43 fold
  CD70 expression on PHA-stimulated T cells, treated vs untreated: increase in CD70 expression
CD70 promoter
  methylation of the 10 CG pairs between −515 and −423 of the TNFSF7 promoter: appears to demethylate
CD70 mRNA
  CD70 mRNA (transcripts) in CD4+ T cells: increased steady state levels of CD70 mRNA

## Sc1ncnc2nc[nH]c12 [6-MP, 6-mercaptopurine]
CD70 [1]
  CD70 expression on stimulated or unstimulated CD4+ cells: No increase in CD70 expression
